Assay results as given in patent US20150105252A1, “SUBSTITUTED PYRAZOLES AS HERBICIDES” (E I DU PONT DE NEMOURS AND COMPANY, priority 2013, published 2015).

Tests used:
[1] = system: barnyardgrass; test: Test A preemergence; assay type: in vivo, Echinochloa crus-galli; conditions: Preemergence, 1000 g ai/ha; 0 to 100 scale, 0 no effect, 100 complete control
Outline: (§1)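 Both timings tested concurrently in loam/sand soil: preemergence by directed soil spray, postemergence on plants of 2–10 cm at the one- to two-leaf stage. Greenhouse holding period was approximately 10 days before visual injury assessment (0–100, 0 = no effect).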

[2] = system: crabgrass, large; test: Test A preemergence; assay type: in vivo, Digitaria sanguinalis; conditions: Preemergence, 1000 g ai/ha; 0 to 100 scale, 0 no effect, 100 complete control
Outline: as §1

[3] = system: foxtail, giant; test: Test A preemergence; assay type: in vivo, Setaria faberii; conditions: Preemergence, 1000 g ai/ha; 0 to 100 scale, 0 no effect, 100 complete control
Outline: as §1

[4] = system: morningglory; test: Test A preemergence; assay type: in vivo, Ipomoea spp.; conditions: Preemergence, 1000 g ai/ha; 0 to 100 scale, 0 no effect, 100 complete control
Outline: as §1

[5] = system: pigweed; test: Test A preemergence; assay type: in vivo, Amaranthus retroflexus; conditions: Preemergence, 1000 g ai/ha; 0 to 100 scale, 0 no effect, 100 complete control
Outline: as §1

[6] = system: velvetleaf; test: Test A preemergence; assay type: in vivo, Abutilon theophrasti; conditions: Preemergence, 1000 g ai/ha; 0 to 100 scale, 0 no effect, 100 complete control
Outline: as §1

[7] = system: wheat; test: Test A preemergence; assay type: in vivo, Triticum aestivum
Outline: as §1

[8] = system: corn; test: Test A preemergence; assay type: in vivo, Zea mays; conditions: Preemergence, 1000 g ai/ha; 0 to 100 scale, 0 no effect, 100 complete control
Outline: as §1

[9] = system: barnyardgrass; test: Test A postemergence; assay type: in vivo, Echinochloa crus-galli; conditions: Postemergence, 1000 g ai/ha; visual rating after approx. 10 days, 0 to 100 scale (0 no effect, 100 complete control)
Outline: as §1

[10] = system: crabgrass, large; test: Test A postemergence; assay type: in vivo, Digitaria sanguinalis; conditions: Postemergence, 1000 g ai/ha; visual rating after approx. 10 days, 0 to 100 scale (0 no effect, 100 complete control)
Outline: as §1

[11] = system: foxtail, giant; test: Test A postemergence; assay type: in vivo, Setaria faberii; conditions: Postemergence, 1000 g ai/ha; visual rating after approx. 10 days, 0 to 100 scale (0 no effect, 100 complete control)
Outline: as §1

[12] = system: morningglory; test: Test A postemergence; assay type: in vivo, Ipomoea spp.; conditions: Postemergence, 1000 g ai/ha; visual rating after approx. 10 days, 0 to 100 scale (0 no effect, 100 complete control)
Outline: as §1

[13] = system: pigweed; test: Test A postemergence; assay type: in vivo, Amaranthus retroflexus; conditions: Postemergence, 1000 g ai/ha; visual rating after approx. 10 days, 0 to 100 scale (0 no effect, 100 complete control)
Outline: as §1

[14] = system: velvetleaf; test: Test A postemergence; assay type: in vivo, Abutilon theophrasti; conditions: Postemergence, 1000 g ai/ha; visual rating after approx. 10 days, 0 to 100 scale (0 no effect, 100 complete control)
Outline: as §1

[15] = system: wheat; test: Test A postemergence; assay type: in vivo, Triticum aestivum; conditions: Postemergence, 1000 g ai/ha; visual rating after approx. 10 days, 0 to 100 scale (0 no effect, 100 complete control)
Outline: as §1

[16] = system: corn; test: Test A postemergence; assay type: in vivo, Zea mays; conditions: Postemergence, 1000 g ai/ha; visual rating after approx. 10 days, 0 to 100 scale (0 no effect, 100 complete control)
Outline: as §1

[17] = Preemergence, 1000 g ai/ha, 0 to 100 scale, 0 no effect, 100 complete control
[18] = preemergence, 500 g ai/ha, visual injury after approx. 10 days, 0 to 100 scale (0 no effect, 100 complete control)

CCc1cc(C(=O)N(C)C)nn1Cc1cccc(OC(F)(F)F)c1 [Compound 56]
Barnyardgrass plant response rating [1]: 0
Crabgrass, Large plant response rating [2]: 0
Foxtail, Giant plant response rating [3]: 10
Morningglory plant response rating [4]: 0
Pigweed plant response rating [5]: 0
Velvetleaf plant response rating [6]: 0
Wheat plant response rating [7, 17]: 0
Corn plant response rating [8]: 0
Barnyardgrass plant response rating [9]: 0
Crabgrass, Large plant response rating [10]: 10
Foxtail, Giant plant response rating [11]: 20
Morningglory plant response rating [12]: 70
Pigweed plant response rating [13]: 60
Velvetleaf plant response rating [14]: 10
Wheat plant response rating [15]: 0
Corn plant response rating [16]: 10

CCc1cc(C(=O)NCCOC)nn1Cc1cccc(OC(F)(F)F)c1 [Compound 57]
Barnyardgrass plant response rating [1]: 10
Crabgrass, Large plant response rating [2]: 20
Foxtail, Giant plant response rating [3]: 90
Morningglory plant response rating [4]: 10
Pigweed plant response rating [5]: 10
Velvetleaf plant response rating [6]: 0
Wheat plant response rating [7, 17]: 0
Wheat plant response rating [7, 18]: 0
Corn plant response rating [8]: 0
Barnyardgrass plant response rating [9]: 10
Crabgrass, Large plant response rating [10]: 10
Foxtail, Giant plant response rating [11]: 10
Morningglory plant response rating [12]: 60
Pigweed plant response rating [13]: 50
Velvetleaf plant response rating [14]: 30
Wheat plant response rating [15]: 0
Corn plant response rating [16]: 40

CCCCNC(=O)c1cc(CC)n(Cc2cccc(OC(F)(F)F)c2)n1 [Compound 62]
Barnyardgrass plant response rating [1]: 10
Crabgrass, Large plant response rating [2]: 40
Foxtail, Giant plant response rating [3]: 60
Morningglory plant response rating [4]: 20
Pigweed plant response rating [5]: 20
Velvetleaf plant response rating [6]: 10
Wheat plant response rating [7, 17]: 0
Wheat plant response rating [7, 18]: 0
Corn plant response rating [8]: 0
Barnyardgrass plant response rating [9]: 10
Crabgrass, Large plant response rating [10]: 20
Foxtail, Giant plant response rating [11]: 30
Morningglory plant response rating [12]: 80
Pigweed plant response rating [13]: 70
Velvetleaf plant response rating [14]: 70
Wheat plant response rating [15]: 20
Corn plant response rating [16]: 50

CCCCN(C)C(=O)c1cc(CC)n(Cc2cccc(OC(F)(F)F)c2)n1 [Compound 63]
Barnyardgrass plant response rating [1]: 0
Crabgrass, Large plant response rating [2]: 0
Foxtail, Giant plant response rating [3]: 0
Morningglory plant response rating [4]: 0
Pigweed plant response rating [5]: 0
Velvetleaf plant response rating [6]: 0
Wheat plant response rating [7, 17]: 0
Wheat plant response rating [7, 18]: 0
Corn plant response rating [8]: 0
Barnyardgrass plant response rating [9]: 0
Crabgrass, Large plant response rating [10]: 10
Foxtail, Giant plant response rating [11]: 20
Morningglory plant response rating [12]: 60
Pigweed plant response rating [13]: 70
Velvetleaf plant response rating [14]: 30
Wheat plant response rating [15]: 10
Corn plant response rating [16]: 20

CCc1cc(C(=O)NC)nn1Cc1cccc(OC(F)(F)F)c1 [Compound 65]
Barnyardgrass plant response rating [1]: 60
Crabgrass, Large plant response rating [2]: 80
Foxtail, Giant plant response rating [3]: 70
Morningglory plant response rating [4]: 70
Pigweed plant response rating [5]: 90
Velvetleaf plant response rating [6]: 20
Wheat plant response rating [7, 17]: 0
Wheat plant response rating [7, 18]: 0
Corn plant response rating [8]: 0
Barnyardgrass plant response rating [9]: 50
Crabgrass, Large plant response rating [10]: 50
Foxtail, Giant plant response rating [11]: 50
Morningglory plant response rating [12]: 90
Pigweed plant response rating [13]: 70
Velvetleaf plant response rating [14]: 30
Wheat plant response rating [15]: 20
Corn plant response rating [16]: 30

CCc1cc(C(=O)N(C)OC)nn1Cc1cccc(OC(F)(F)F)c1 [Compound 67]
Barnyardgrass plant response rating [1]: 0
Crabgrass, Large plant response rating [2]: 50
Foxtail, Giant plant response rating [3]: 90
Morningglory plant response rating [4]: 0
Pigweed plant response rating [5]: 0
Velvetleaf plant response rating [6]: 10
Wheat plant response rating [7, 17]: 0
Wheat plant response rating [7, 18]: 0
Corn plant response rating [8]: 0
Barnyardgrass plant response rating [9]: 20
Crabgrass, Large plant response rating [10]: 30
Foxtail, Giant plant response rating [11]: 40
Morningglory plant response rating [12]: 40
Pigweed plant response rating [13]: 40
Velvetleaf plant response rating [14]: 30
Wheat plant response rating [15]: 20
Corn plant response rating [16]: 30

CCc1cc(C(=O)N(C)CC)nn1Cc1cccc(OC(F)(F)F)c1 [Compound 68]
Barnyardgrass plant response rating [1]: 0
Crabgrass, Large plant response rating [2]: 40
Foxtail, Giant plant response rating [3]: 60
Morningglory plant response rating [4]: 0
Pigweed plant response rating [5]: 70
Velvetleaf plant response rating [6]: 0
Wheat plant response rating [7, 17]: 0
Wheat plant response rating [7, 18]: 0
Corn plant response rating [8]: 0
Barnyardgrass plant response rating [9]: 30
Crabgrass, Large plant response rating [10]: 30
Foxtail, Giant plant response rating [11]: 20
Morningglory plant response rating [12]: 100
Pigweed plant response rating [13]: 60
Velvetleaf plant response rating [14]: 40
Wheat plant response rating [15]: 20
Corn plant response rating [16]: 30
